PMC6627850, “Identification of Plasmodium falciparum Mitochondrial Malate: Quinone Oxidoreductase Inhibitors from the Pathogen Box” (Genes, 2019)
Where “and” joins values, the source holds several entries; their conditions need not be identical. Identical values can stand only once. Like-named read-outs stand apart in the source and are kept apart here.

How the values were obtained:
P. falciparum 3D7 strain = experiment: Plasmodium falciparum growth inhibition assay (diaphorase-coupled LDH assay, 72 hours); assay type: cell-based; conditions: for Growth inhibition of parasite cells (result in words): P. falciparum 3D7, LDH assay; for IC50: Plasmodium falciparum, read-out: IC50 growth of P. falciparum 3D7 strain in culture (ABS)
Protocol: Human RBCs were received from Japanese Red Cross Society. The experiments were performed under the guidelines of the ethical committee in The University of Tokyo (permission no. 10050) and Nagasaki University (permission no. 19). Parasite culture was synchronized with 5% (w/v) D-sorbitol as previously described. Ring stage parasites (100 μL/well) were placed in a 96-well plate at 0.3% parasitemia. […] As a control, wells containing culture medium and RBCs alone were prepared. […] The absorbance of each well was measured at 655 nm using SpectraMax Paradigm® Multi-Mode microplate reader (Molecular Devices, San Jose, CA, USA).

recombinant PfMQO = recombinant PfMQO (Plasmodium falciparum, UniProt C6KT09); experiment: biochemical; conditions: for inhibition at 10 µM: read-out: Inhibition (%) against recombinant PfMQO; for IC50: serial dilution 10 to 0.0003 μM, quadruplicate, ± standard deviation
Sequence of recombinant PfMQO (C6KT09 entry or part of it): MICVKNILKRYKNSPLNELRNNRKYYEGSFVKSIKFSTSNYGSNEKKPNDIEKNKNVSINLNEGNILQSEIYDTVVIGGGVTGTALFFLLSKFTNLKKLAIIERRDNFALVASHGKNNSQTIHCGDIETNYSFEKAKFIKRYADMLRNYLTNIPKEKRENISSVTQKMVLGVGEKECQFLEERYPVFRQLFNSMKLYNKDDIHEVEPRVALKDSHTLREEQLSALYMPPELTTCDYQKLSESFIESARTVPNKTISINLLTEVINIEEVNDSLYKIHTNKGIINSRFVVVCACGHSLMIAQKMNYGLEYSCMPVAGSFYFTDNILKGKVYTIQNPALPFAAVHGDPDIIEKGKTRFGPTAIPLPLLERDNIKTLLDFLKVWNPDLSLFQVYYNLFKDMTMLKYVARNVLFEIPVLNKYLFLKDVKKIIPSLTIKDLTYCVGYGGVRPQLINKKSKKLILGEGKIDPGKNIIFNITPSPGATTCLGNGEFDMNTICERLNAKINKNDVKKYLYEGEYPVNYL

[1] = system: stage IV gametocyte cells; set-up: method as in PMID 28674055; conditions: cited from earlier work
ABS parasites = system: ABS parasites; set-up: method as in PMID 28674055; conditions: read-out: IC50 against the ABS parasites, previous study; cited from earlier work
HepG2 = system: HepG2; set-up: method as in earlier work; conditions: ref https://www.mmv.org/mmv-open/pathogen-box/about-pathogen-box#composition; cited from earlier work
Candida albicans = conditions: recently reported; cited from earlier work
Cryptococcus neoformans = conditions: recently reported; cited from earlier work
[2] = 10 μM compound, average of 4 independent experiments
[3] = read-out: IC50 against recombinant PfMQO
[4] = 3D7, LDH assay, 72 hours incubation, average of three independent experiments ± SD

Row | inhibition at 10 µM (recombinant PfMQO; [2]) | IC50 (recombinant PfMQO; [3]) | IC50 (P. falciparum 3D7 strain; [4]) | Compound | Growth inhibition of parasite cells (result in words) (P. falciparum 3D7 strain) | inhibition at 10 µM (recombinant PfMQO) | other results
1 | 98.5% | < 5 µM and 0.343 µM | – | O=C(Nc1nnc(S)s1)c1cc(Br)ccc1Cl [MMV676492] | failed to inhibit the growth | – | –
2 | 76% | < 5 µM and 3.96 µM | 0.46 µM | N=C(N)Nc1ccc(-c2ccc(-c3ccc(NC(=N)N)cc3Cl)o2)c(Cl)c1 [MMV688179] | – | – | Activity against the stage IV gametocyte cells [1]: active; IC50 (ABS parasites): 0.59 µM; HepG2 cytotoxicity CC20 (HepG2): 6.8 µM
3 | 80.5% | < 5 µM and 1.15 µM | 1.03 µM | N=C(N)Nc1ccc(-c2ccc(-c3ccc(NC(=N)N)c(Cl)c3)o2)cc1Cl [MMV688271] | – | – | IC50 (ABS parasites): 1.21 µM; Antifungal effect against Candida albicans (Candida albicans): antifungal effect; Antifungal effect against Cryptococcus neoformans (Cryptococcus neoformans): antifungal effect; HepG2 cytotoxicity CC20 (HepG2): 13.5 µM
4 | – | – | – | COc1ccc(C2=NN(C3CCCCCC3)C(=O)C3CC=CCC23)cc1OCCCCOc1ccc(-c2nn[nH]n2)cc1 (stereo not drawn) [MMV690027] | – | 98.2% | IC50 (P. falciparum 3D7 strain; 3D7, 72 h): 16.2 µM

Row | Compound | inhibition at 10 µM (recombinant PfMQO; [2]) | IC50 (recombinant PfMQO; [3]) | IC50 (P. falciparum 3D7 strain; [4]) | Growth inhibition of parasite cells (result in words) (P. falciparum 3D7 strain) | inhibition at 10 µM (recombinant PfMQO) | other results
5 | Cc1cc(C)cc(COc2ccc3c(C)c(CCC(=O)O)c(=O)oc3c2C)c1 [MMV676476] | – | < 5 µM and 3.57 µM | – | failed to inhibit the growth | 63.2% | –
6 | COc1ccc(C2=NN(C3CCCCCC3)C(=O)C2(C)C)cc1OCCCCOc1ccc(-c2nnn[nH]2)cc1 [MMV690028] | – | – | 6.05 µM | – | 86.7% | IC50 (recombinant PfMQO; IC50 against recombinant PfMQO): < 5 µM and 1.1 µM
7 | O=C(NCCc1c[nH]c2ccccc12)c1cc2ccccc2oc1=O [MMV676539] | – | < 5 µM and 4.06 µM | – | failed to inhibit the growth | 65.6% | –
